We go through three compounds from the NIST ThermoML archive (doi:10.1021/je9002515).

± gives the expanded uncertainty stated by the source.

Data set [1] can be described thus: xn = mol fraction of the nth substance listed. As to conditions: 101 kPa, Liquid, Alternating current cell with electrodes, x2 = 0.
For data set [2] the following is noted: 101 kPa, Liquid, Alternating current cell with electrodes.

For `CC(=O)N(C)C` [N,N-dimethylethanamide] + CNC(C)=O, the electrical conductivity was 0.0149 ± 0.0024 S/m in data set [1] (303.15 K); 0.0195 ± 0.0031 S/m in data set [1] (313.15 K); 0.024 ± 0.0038 S/m in data set [1] (323.15 K); 0.0307 ± 0.0049 S/m in data set [1] (333.15 K); 0.04 ± 0.0064 S/m in data set [1] (343.15 K); 0.0462 ± 0.0074 S/m in data set [1] (353.15 K). The electrical conductivity in data set [1] (363.15 K) was determined as 0.0508 ± 0.0081 S/m; in data set [1] (373.15 K) it was 0.0534 ± 0.0086 S/m; in data set [1] (383.15 K) it was 0.0544 ± 0.0087 S/m; in data set [1] (393.15 K), 0.0518 ± 0.0083 S/m.

Turning to `CNC(C)=O` [N-methylacetamide], the electrical conductivity in data set [2] (303.15 K) amounted to 0.0324 ± 0.0052 S/m; in data set [2] (313.15 K), 0.0447 ± 0.0072 S/m; in data set [2] (323.15 K), 0.0614 ± 0.0098 S/m; in data set [2] (333.15 K), 0.0775 ± 0.012 S/m; in data set [2] (343.15 K), 0.105 ± 0.017 S/m; in data set [2] (353.15 K), 0.129 ± 0.021 S/m. Further, the electrical conductivity worked out at 0.165 ± 0.026 S/m in data set [2] (363.15 K), 0.192 ± 0.031 S/m in data set [2] (373.15 K), 0.219 ± 0.035 S/m in data set [2] (383.15 K) and 0.247 ± 0.04 S/m in data set [2] (393.15 K).

Turning to `CC(=O)N(C)C` [N,N-dimethylethanamide], the electrical conductivity in data set [2] (303.15 K) came out at 0.0149 ± 0.0024 S/m; in data set [2] (313.15 K), 0.0195 ± 0.0031 S/m; in data set [2] (323.15 K), 0.024 ± 0.0038 S/m; in data set [2] (333.15 K) it was 0.0307 ± 0.0049 S/m; in data set [2] (343.15 K) it was 0.04 ± 0.0064 S/m; in data set [2] (353.15 K) it was 0.0462 ± 0.0074 S/m. Moreover, the electrical conductivity in data set [2] (363.15 K) was 0.0508 ± 0.0081 S/m; in data set [2] (373.15 K) it was 0.0534 ± 0.0086 S/m; in data set [2] (383.15 K) it was 0.0544 ± 0.0087 S/m; in data set [2] (393.15 K) it was 0.0518 ± 0.0083 S/m.
